Data set [1] has as its system Rattus norvegicus. Conditions: M/F.
The subject of data set [2] is Rattus norvegicus.
In data set [3] the test system is Rattus norvegicus. The following applies: for NOAEL: M/F.
Data set [4] deals with Rattus norvegicus. The following applies: oral, gavage.
For data set [5], the system named is Rattus norvegicus. The following applies: short-term.
Setting [6] is: chronic, duration: 2 years, oral, diet, RBC, ChE inhibition + reduced hemoglobin, hematocrit and RBCs.
[7] abbreviates: chronic, duration: 2 years, oral, diet, lungs, liver, kidney, thyroid and thyroid hormones.
[8] abbreviates: reproduction developmental, oral, reduced offspring body weight.
Setting [9] is: subchronic, oral, gavage, liver toxicity.
Where [10] appears, read: reproduction developmental, inhalation, increased liver weight in p1 males.
[11] abbreviates: chronic, duration: 2 years, oral, diet, reduced body weight.
[12] abbreviates: acute, duration: 1 hours, oral, gavage, M, inhibition of acetic acid-induced writhing response.
Setting [13] is: duration: 3 days, injection, subcutaneous, F, Sprague-Dawley, uterus: absolute blotted uterine weight.
Where [14] appears, read: duration: 4 days, oral, gavage, F, Wistar, female reproductive system: vaginal cornification + uterus: uterine wet weight (relative).
Where [15] appears, read: duration: 4 days, oral, gavage, F, Wistar, uterus: uterine dry weight (relative).
Setting [16] is: duration: 10 days, oral, gavage, M, BrlHan:WIST, body weight + spontaneous locomotion.
[17] abbreviates: duration: 10 days, oral, gavage, M, BrlHan:WIST, male accessory sex gland: relative bulbourethral gland weight in the presence of TP.
Setting [18] is: duration: 28 days, oral, gavage, F, Crj:CD, kidney: kidney weight.
Setting [19] is: duration: 28 days, oral, gavage, F, Crj:CD, liver: liver weight + thymus: serum T3.
Where [20] appears, read: duration: 28 days, oral, gavage, M, Crj:CD, body weight + brain: brain weight + food consumption + liver: liver weight + testis: testes weight + thymus: serum T3 + thymus: serum T4 + ….
Setting [21] is: chronic, duration: 2 years, oral, diet, glomerulonephritis, atrophic testes, eye keratitis reduced body weight and organ weight.

What is called NOAEL is the highest tested level that showed no adverse finding. A word on the LOAEL: it is the lowest dose or exposure tested at which an adverse effect was seen.

Several values for one entry are separate records, joined by “and”; a condition that tells them apart may be missing. Identical values can stand only once.

`COP(=S)(OC)Oc1ccc([N+](=O)[O-])cc1` [Methyl parathion]: in the data set on Rattus norvegicus [1] (setting [6]), the LEL turned out to be 0.25 mg/kg-day. Besides, the NOEL with Rattus norvegicus [1] (setting [6]) was found to be 0.025 mg/kg-day. The NOAEL in the data set on Rattus norvegicus [2] (subchronic, duration: 90 days, oral, diet, Erythrocytes: Cholinesterase inhibition) was 0.24 mg/kg-day; in the data set on Rattus norvegicus [3] (chronic, duration: 28 months, oral, diet, Sprague-Dawley, hematological), 0.025 mg/kg-day. The compound also had an LOAEL in the data set with Rattus norvegicus [3] (subchronic, duration: 13 weeks, oral, gavage, M, Wistar, neurological) of 0.22 mg/kg-day.
In the data set on Rattus norvegicus [1] (setting [7]), `COC(=O)c1c(Cl)c(Cl)c(C(=O)OC)c(Cl)c1Cl` [Chlorthal-dimethyl] gave an LOAEL of 10 mg/kg-day and an NOAEL of 1 mg/kg-day. In addition, the no-observed-adverse-effect level (NOAEL) with Rattus norvegicus [2] (chronic, duration: 2 years, oral, diet, Kidney: Effects + Liver: Effects + Lung: Effects + Thyroid hormones: Effects + Thyroid: Effects) stood at 1 mg/kg-day.
Consider `O=C1CCCCCN1` [Caprolactam], for which, in the data set with Rattus norvegicus [1] (setting [8]), the LOAEL was found to be 250 mg/kg-day and the NOAEL is 50 mg/kg-day. The compound also yielded an NOAEL in the data set on Rattus norvegicus [2] (subchronic, duration: 90 days, oral, diet, Kidney: Effects) of 50 mg/kg-day.
As for `CCNc1nc(NC(C)C)nc(SC)n1` [Ametryn], in the data set on Rattus norvegicus [1] (setting [9]), the LEL turned out to be 100 mg/kg-day; the NOEL is 8.6 mg/kg-day and 10 mg/kg-day. In addition, the NOEL with Rattus norvegicus [2] (subchronic, duration: 13 weeks, oral, gavage, Liver: Effects) was 10 mg/kg-day.
For `Clc1ccc(Cl)cc1` [1,4-Dichlorobenzene], the NOEL in the data set on Rattus norvegicus [4] (subchronic, duration: 13 weeks, M/F, Fischer 344, Deaths + Clinical Observation: Tremors Poor motor response Ocular discharge + Body Weight Changes: decrease + Urinalysis: Coproporphyrin …) was less than 300 mg/kg-day. Further, in the data set with Rattus norvegicus [1] (setting [10]), the LOAEL is 902 mg/m3 and the no-observed-adverse-effect level (NOAEL) was determined as 301 mg/m3. The no observed adverse effect level (NOAEL) with Rattus norvegicus [2] (chronic, inhalation, intermittent, Liver: Increased weight in male parents) was 75 mg/m3.
As for `CCOP(=S)(OCC)SCSCC` [Phorate], the no-observed-adverse-effect level (NOAEL) with Rattus norvegicus [2] (subchronic, duration: 13 weeks, oral, diet, Cholinesterase: Inhibition) was found to be 0.033 mg/kg-day.
`[Be]` [Beryllium]: in the data set on Rattus norvegicus [2] (chronic, oral, drinking water, None Observed), the NOAEL amounted to 0.54 mg/kg-day.
On to `Oc1ccccc1` [Phenol], for which the NOAEL in the data set on Rattus norvegicus [2] (developmental, oral, gavage, Fetus: Decreased weight) was 60 mg/kg-day.
With `O=C1C[C@@H]2OCC=C3CN4CC[C@]56c7ccccc7N1[C@H]5[C@H]2[C@H]3C[C@H]46` [Strychnine], the lowest observed adverse effect level (LOAEL) in the data set on Rattus norvegicus [1] (subchronic, oral, toxicity/histopathology) came to 2.5 mg/kg-day; in the data set on Rattus norvegicus [2] (short-term, duration: 28 days, oral, gavage, Unspecified: Histopathology + Unspecified: Toxicity), 2.5 mg/kg-day.
On to `CCOP(=S)(OCC)SCCSCC` [Disulfoton], for which the LEL in the data set with Rattus norvegicus [1] (chronic, duration: 2 years, oral, diet, cholinesterase inhibition, optic nerve degeneration) came to 0.04 mg/kg-day. In addition, the LOAEL came to 0.04 mg/kg-day with Rattus norvegicus [2] (chronic, duration: 2 years, oral, diet, Blood: Cholinesterase inhibition + Eye: Degeneration) and 0.06 mg/kg-day with Rattus norvegicus [3] (chronic, duration: 2 years, oral, diet, F, Fischer 344, neurological). The NOAEL came to 0.009 mg/kg-day in the data set with Rattus norvegicus [3] (developmental, duration: 364 days, oral, diet, Sprague-Dawley, neurological, developmental); 0.1 mg/m3 in the data set on Rattus norvegicus [3] (short-term, duration: 3 weeks, inhalation, Wistar TNO/W 74 albino, neurological); 0.1 mg/m3 in the data set on Rattus norvegicus [3] (short-term, duration: 3 weeks, inhalation, chamber, Wistar TNO/W 74 albino, neurological).
In the data set with Rattus norvegicus [1] (setting [11]), `CC(C)Nc1nc(Cl)nc(NC(C)C)n1` [2,4-Bis(isopropylamino)-6-chloro-1,3,5-triazine] showed an LEL of 50 mg/kg-day and an NOEL of 5 mg/kg-day. In the data set with Rattus norvegicus [2] (chronic, duration: 2 years, oral, diet, Whole body: Decreased weight gain), the NOEL came to 5 mg/kg-day.
In the data set on Rattus norvegicus [3] (subchronic, duration: 8 weeks, oral, gavage, M, Sprague-Dawley, reproductive), `Brc1ccc(Oc2ccc(Br)cc2Br)c(Br)c1` [2,2',4,4'-Tetrabromodiphenyl ether] came in with an LOAEL of 0.001 mg/kg-day. The LOEL in the data set with Mus musculus (developmental, oral, M/F, C57BL/6, generation: F1, F1: Morris water maze (swim speed, first trial) + F1: Morris water maze (swim speed, last trial) + F1: Morris water maze (swim speed, middle…) is 1 mg/kg-day; with Mus musculus (reproduction developmental, oral, F, C57BL/6, generation: P0, P0: Morris water maze (latency, first trial)), 0.03 mg/kg-day.
For the compound `Oc1ccc(Cc2ccc(O)cc2)cc1` [Bis(4-hydroxyphenyl)methane], the NOEL in the data set on Rattus norvegicus [4] (short-term, duration: 28 days, F, CD(SD), Clinical Observation: Decreased locomotor activity Soiled fur Soft stool + Body Weight Changes: decrease + Food Consumption: decrease + …) is less than 20 mg/kg-day; with Rattus norvegicus [4] (short-term, duration: 28 days, M, CD(SD), Clinical Observation: Decreased locomotor activity Soiled fur Soft stool + Body Weight Changes: decrease + Food Consumption: decrease + …), 20 mg/kg-day; in the data set with Mus musculus (setting [12]), 12.5 mg/kg-day; with Rattus norvegicus [5] (setting [13]), 20 mg/kg-day; with Rattus norvegicus [5] (setting [14]), 50 mg/kg-day; in the data set on Rattus norvegicus [5] (setting [15]) it was 100 mg/kg-day. For the same compound, the NOEL came to 200 mg/kg-day in the data set on Rattus norvegicus [5] (setting [16]); 1000 mg/kg-day with Rattus norvegicus [5] (duration: 10 days, oral, gavage, M, BrlHan:WIST, body weight in the presence of TP + body weight the absence of TP + male accessory sex gland: relative bulbourethral gland weight in the …); 1000 mg/kg-day with Rattus norvegicus [5] (duration: 10 days, oral, gavage, M, BrlHan:WIST, male accessory sex gland: BC/LA weight (relative) + male accessory sex gland: Cowper's gland weight (relative) + male accessory sex gland: …); 50 mg/kg-day with Rattus norvegicus [5] (setting [17]); 20 mg/kg-day in the data set on Rattus norvegicus [5] (setting [18]); 100 mg/kg-day with Rattus norvegicus [5] (setting [19]). For the same compound, the NOEL with Rattus norvegicus [5] (setting [20]) amounted to 100 mg/kg-day. The LOEL came out at 0.25 mg/ear in the data set on Mus musculus (acute, duration: 1 hours, dermal, M, inhibition of arachidonic acid-induced ear edema); 25 mg/kg-day with Mus musculus (setting [12]); 100 mg/kg-day with Rattus norvegicus [5] (duration: 3 days, injection, subcutaneous, F, Crj:CD, uterus: uterine dry weight (absolute) + uterus: uterine dry weight (relative) + uterus: uterine wet weight (absolute) + uterus: uterine wet …); 200 mg/kg-day in the data set with Rattus norvegicus [5] (setting [13]); 100 mg/kg-day with Rattus norvegicus [5] (setting [14]); 200 mg/kg-day in the data set on Rattus norvegicus [5] (setting [15]). For the same compound, the LOEL is 0.5 mg/day with Rattus norvegicus [5] (duration: 5 days, injection, subcutaneous, F, Wistar, uterus: uterine dry weight (relative)); 1000 mg/kg-day in the data set with Rattus norvegicus [5] (setting [16]); 200 mg/kg-day with Rattus norvegicus [5] (setting [17]); 20 mg/kg-day in the data set with Rattus norvegicus [5] (duration: 28 days, oral, gavage, F, Crj:CD, body weight + brain: brain weight + food consumption + thymus: serum T4); 100 mg/kg-day in the data set on Rattus norvegicus [5] (setting [18]); 500 mg/kg-day with Rattus norvegicus [5] (setting [19]). In the data set with Rattus norvegicus [5] (setting [20]), the LOEL amounted to 500 mg/kg-day.
In the case of `CCOP(=S)(OCC)Oc1cc(Cl)c(SC)cc1Cl` [Chlorthiophos], the no observed adverse effect level (NOAEL) with Rattus norvegicus [2] (chronic, duration: 2 years, oral, diet, None Observed) is 0.08 mg/kg-day.
In the data set with Rattus norvegicus [1] (setting [21]), `Cn1cc(-c2ccccc2)c(=O)c(-c2cccc(C(F)(F)F)c2)c1` [1-Methyl-3-phenyl-5-(3-(trifluoromethyl)phenyl)-4-pyridone] registered an LEL of 25 mg/kg-day and an NOEL of 8 mg/kg-day. Besides, the NOEL in the data set on Rattus norvegicus [2] (chronic, duration: 2 years, oral, diet, Kidney: Glomerulonephritis + Organs: Decreased weight + Testis: Atrophy + Whole body: Decreased weight) amounted to 15.6 mg/kg-day.

The record behind these values is EPA's ToxValDB 9.5.
